Blank lines part the entries; values can stand above or below the compound they belong to.
What was measured:
Type in all cases: cell-based
[1] = target: T1, α1β2 GABAA receptor (α1 subunit) (Homo sapiens, UniProt P14867+P47870); experiment: voltage clamp: reduction of CGS […] potentiation (data not shown); […] [3H]flumazenil displacement at […] in bovine membranes
T1 construct: gene GABRA1; recombinant α1β2 receptor (devoid of the γ subunit) in Xenopus laevis oocytes; with GABAA receptor β2 subunit (GABRB2)
T1 sequence (P14867 28-456): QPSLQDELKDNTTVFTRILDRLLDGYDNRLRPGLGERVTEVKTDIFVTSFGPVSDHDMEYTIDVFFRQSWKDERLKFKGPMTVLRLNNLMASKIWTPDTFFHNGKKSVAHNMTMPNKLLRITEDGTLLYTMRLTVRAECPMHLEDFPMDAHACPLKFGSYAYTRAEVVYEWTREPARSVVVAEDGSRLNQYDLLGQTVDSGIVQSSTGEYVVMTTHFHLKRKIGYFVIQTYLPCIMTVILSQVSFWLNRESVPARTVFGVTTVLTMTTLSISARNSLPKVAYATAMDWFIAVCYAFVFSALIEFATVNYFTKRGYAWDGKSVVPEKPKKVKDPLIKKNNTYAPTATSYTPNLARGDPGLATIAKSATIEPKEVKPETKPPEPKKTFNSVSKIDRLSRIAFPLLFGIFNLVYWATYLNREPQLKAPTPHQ
T1 sequence (P47870 26-512): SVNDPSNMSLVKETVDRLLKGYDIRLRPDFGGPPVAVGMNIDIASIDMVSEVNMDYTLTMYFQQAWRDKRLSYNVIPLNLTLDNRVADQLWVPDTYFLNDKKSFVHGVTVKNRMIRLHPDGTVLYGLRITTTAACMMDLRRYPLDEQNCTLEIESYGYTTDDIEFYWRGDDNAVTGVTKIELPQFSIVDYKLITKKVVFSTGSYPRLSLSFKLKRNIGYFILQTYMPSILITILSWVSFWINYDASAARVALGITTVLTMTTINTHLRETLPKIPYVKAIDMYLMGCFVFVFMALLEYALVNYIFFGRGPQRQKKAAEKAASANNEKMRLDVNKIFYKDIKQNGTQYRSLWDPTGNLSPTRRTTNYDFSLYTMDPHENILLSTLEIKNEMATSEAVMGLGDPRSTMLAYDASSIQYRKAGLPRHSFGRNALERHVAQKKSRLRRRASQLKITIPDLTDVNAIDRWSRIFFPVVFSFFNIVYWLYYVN

[2] = target: T1, α1β2 GABAA receptor (α1 subunit); experiment: voltage clamp: block of CGS […] potentiation (data not shown); […] [3H]flumazenil displacement at […] in bovine membranes
[3] = target: T2, α1β2γ2L GABAA receptor (α1 subunit) (Homo sapiens, UniProt P14867+P18507); experiment: two-electrode voltage clamp of GABA currents in oocytes; also […] [3H]flumazenil displacement at […] in bovine membranes
T2 construct: gene GABRA1; recombinant α1β2γ2L receptor in Xenopus laevis oocytes; with GABAA receptor β2 (GABRB2) and γ2L (GABRG2) subunits
T2 sequence (P18507 40-475, one chain of several): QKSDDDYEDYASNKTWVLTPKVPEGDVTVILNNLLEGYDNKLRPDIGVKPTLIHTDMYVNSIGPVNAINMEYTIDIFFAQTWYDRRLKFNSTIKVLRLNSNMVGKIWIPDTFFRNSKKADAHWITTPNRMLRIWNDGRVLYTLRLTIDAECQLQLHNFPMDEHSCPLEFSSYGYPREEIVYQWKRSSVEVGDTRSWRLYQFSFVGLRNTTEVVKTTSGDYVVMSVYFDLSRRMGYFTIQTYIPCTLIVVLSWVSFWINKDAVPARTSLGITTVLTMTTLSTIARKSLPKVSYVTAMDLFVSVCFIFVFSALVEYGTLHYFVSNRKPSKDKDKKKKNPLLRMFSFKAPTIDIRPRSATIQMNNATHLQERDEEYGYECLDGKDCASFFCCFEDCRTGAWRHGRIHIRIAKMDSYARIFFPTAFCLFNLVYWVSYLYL

Compound: COc1ccc2cnc3c(-c4ccsc4)cnn3c2c1 [5e, 3-(Thien-3-yl)-8-methoxypyrazolo[1,5-a]quinazoline]
voltage clamp: reduction of CGS 9895 potentiation (data not shown); >80% [3H]flu [1]: compounds 5d and 5e, which in the same test completely blocked or strongly reduced the potentiation of the GABAA receptor function

Compound: COc1ccc2cnc3c(-c4cccs4)cnn3c2c1 [5d, 3-(Thien-2-yl)-8-methoxypyrazolo[1,5-a]quinazoline]
voltage clamp: block of CGS 9895 potentiation (data not shown); >80% [3H]flumaze [2]: compounds 5d and 5e, which in the same test completely blocked or strongly reduced the potentiation of the GABAA receptor function

EC50 [3]: 12 µM
Compound: COc1ccc2cnc3c(C(=O)c4cccs4)cnn3c2c1 [6b, 3-(Thien-2-ylcarbonyl)-8-methoxypyrazolo[1,5-a]quinazoline]
